From patent publication US8946200B2, “Pharmaceutically active nanosuspensions” (Southwest Research Institute, priority 2006, dated 2015)

Columns and labels:
[1] = Particle size distribution of the nanoparticle suspension (Beckman Coulter PCS Submicron Particle Size Analyzer); type: physicochemical; settings: suspension of TCO in PBS pH 7.4, 0.5 mg/mL (FIG. 1)
Procedure: The particle size of the pharmaceutically active compound in the nanosuspension may be in the range of 100 nm to 1000 nm, including all values and increments therein, such as in the range of 250 nm to 1,000 nm, etc. Illustrated in FIG. 1 is an exemplary embodiment of a numerical particle size distribution of suspension of TCO in PBS having a pH of 7.4 and at a concentration of 0.5 mg/mL. […] In addition, the highest relative number percent of particles fall in the range of about 450-525 nm. Such particle size determination may be accomplished on a Beckman Coulter PCS Submicron Particle Size Analyzer. Accordingly, a nanosuspension herein may be understood as any liquid medium containing pharmaceutically active compounds having particles with a size of less than or equal to about 1000 nm.
(§1) A solution of TCO (1 mg) in hexafluoroisopropanol (HFIP) (0.5 mL) was prepared and added slowly into a magnetically stirred into phosphate buffered saline (PBS) (2 mL) having a pH of 7.4. The mixture was stirred uncovered in a fume hood for up to 24 hours. FIG. 1 illustrates the particle size distribution of suspension of TCO in pH 7.4 PBS at 0.5 mg/mL concentration. […] The clear nanoparticle suspension was further concentrated in a vacuum oven to about 1.5 mg/mL.

[2] = Concentration of the nanosuspension and appearance / physical stability; type: physicochemical
Procedure: as §1
A solution of TCO (1 mg) in hexafluoroisopropanol (0.5 mL) was prepared and added slowly into a magnetically stirred deionized water (2 mL). The mixture was stirred uncovered in a fume hood for 3 hours and further concentrated in a vacuum oven. The nanoparticle suspension in deionized water, however, could only be concentrated to about 0.6 mg/mL of concentration before growing micron-sized crystals.

**Q.** With triamcinolone [TCO] as the substance, how does the “particle size range with the highest relative number percent of particles” value [1] read?
**A.** 450-525 nm

**Q.** And the appearance of nanosuspension ([2]; 1.0 mg/ML, precipitating 2 mg/0.5 mL TCO/HFIP into 2 mL PBS)?
**A.** cloudy solution

**Q.** What about the “concentration to which the clear nanoparticle suspension was further concentrated” value ([2]; PBS pH 7.4, 1 mg TCO/0.5 mL HFIP into 2 mL PBS, vacuum oven) of the same substance?
**A.** about 1.5 mg/mL

**Q.** And the “concentration reached before growing micron-sized crystals” value ([2]; deionized water, 1 mg TCO/0.5 mL HFIP into 2 mL water, vacuum oven)?
**A.** about 0.6 mg/mL
